Measured values as given in patent US7560591B2, “Benzamidine derivatives having anti-inflammatory and immunosuppressive activity” (Rotta Research Laboratorium S.p.A., priority 2001, dated 2009).
Like-named read-outs stand apart in the source and are kept apart here.

Key:
[1] = tested on: colitis induced by TNBS in rats; test: Colitis induced by TNBS in rats; format: in vivo, rat; conditions: for Weight of the colon: 48 hours after TNBS; for Weight of the colon / Myeloperoxidase activity / iNOS activity / Macroscopic damage (MDS): mean ± SD; for Myeloperoxidase activity / iNOS activity: colon tissue; for Macroscopic damage (MDS): score 0-10
Description: The combined capability of some of the compounds of the invention to inhibit both iNOS and the synthesis of TNFα has led to their activity being checked in an experimental model of colitis caused by a chemical hapten, trinitrobenzene-sulphonic acid (TNBS), which can bind to the tissue proteins and stimulate cell-mediated immunity. The intrarectal administration of TNBS in association with ethanol causes acute inflammation characterised by extensive ulceration and necrosis.
A distal colitis was therefore induced in the rat by intrarectal instillation of TNBS (40 mg/kg) dissolved in 50% ethanol (0.5 ml/rat). The drugs were administered orally twice a day on days −2; −1; 0; +1 and the animals were killed 48 hours after the administration of TNBS.
The parameters examined were: total weight of the colon (g), macroscopic tissue damage “score”, measurement of the tissue myeloperoxidase (MPO) activity, which is a marker of the infiltration of the neutrophiles, and measurement of the iNOS activity (pmoles/g tissue/min.).
The macroscopic score (MDS) was taken on about 10 cm of colon in accordance with the following arbitrary scale:
The tissue MPO measurement was performed according to Velgara et al., JPET 1994. The measurement of the tissue nitrites was performed by applying the method described above for the chondrocytes to the supernatant fluid of the tissue homogenate.
Compound I-4, administered in doses of 5, 10 and 20 mg/kg, and compound I-11 were examined, by administering them orally, in comparison with sulphasalazine (250 mg/kg) and 5-aminosalicylic acid (5-ASA) (100 mg/kg), 2 drugs which are widely used in the treatment of ulcerative colitis.

[2] = tested on: neutral proteases (metalloproteases); test: Inhibition of neutral proteases (metalloproteases) in supernatant of IL-1β-stimulated rabbit joint chondrocytes, azocoll substrate; format: biochemical; conditions: IL-1β 1 ng/ml, 48 hours, APMA-activated supernatant, read-out: MP (metalloproteases) IC50
Protocol: (§1) a) The activity in inhibiting the formation of NO, measured as NO2^− (nitrites), PGE2, and neutral protease, was investigated in vitro on culture broths of rabbit joint chondrocytes stimulated by cytokine IL-1β (1 ng/ml) for 48 hours. For the preparation of the chondrocytes, the method described by Berenbaum et al [FEBS Letters 340, 51-55 (1994)] was followed. Briefly, fragments of cartilage removed under sterile conditions from the heads of rabbit shoulder, hip and knee joints were chopped finely and digested at 37° C. by hyaluronidase, trypsin and collagenase solutions, giving rise, after filtration on sterile gauze and centrifuging at 600×g and suitable dilution with 10% DMEM-FCS, to a concentration of approximately 1×10^5 cells per well. The cells were kept in these conditions until confluence (about 15 days), the broth being changed every 3 days. At this point, the products under test, dissolved in the medium, were added to each test sample and, after 20 minutes, 350 μl IL-1β was added in order to have a final concentration of 1 ng/ml. The duration of the stimulation was 48 hours at 37° C. (incubation air-CO2 7%). Measurement of the nitrites, as described by Green et al. [Anal. Biochem. 126, 131-138 (1982)], and of the PGE2s by RIA measurement, was then performed on the cell supernatant fluid. The measurement of the neutral proteases was performed in the cell supernatant fluid containing the p-aminophenyl mercury acetate (APMA) activator with the use of azocoll as the substrate and with incubation at 37° C. for 17 h as described by Chavira et al. [Anal. Biochem. 136, 446-450 (1984)]. In order to evaluate the direct inhibitory effect of the compounds under test on the hydrolytic activity of the cell supernatant fluid, they were added to the supernatant fluid containing the proteases induced by IL-1β and already activated by AMPA.
(§2) The results obtained are shown in Table 3, in which the IC50, that is, the concentration (micromolar) of antagonist which can inhibit the formation of nitrites, PGE2s, and neutral proteases, respectively, by 50% relative to the control group, that is, to the cells stimulated with IL-1β but without the addition of antagonists, is given for some of the compounds of the invention already given by way of example in Table 2.

[3] = tested on: formation of NO, measured as NO2− (nitrites); test: Inhibition of NO (nitrite) formation in rabbit joint chondrocytes stimulated by IL-1β; format: cell-based; conditions: IL-1β 1 ng/ml, 48 hours, NO determined as nitrites
Protocol: as §1, §2

formation of PGE2 = test: Inhibition of PGE2 formation in rabbit joint chondrocytes stimulated by IL-1β (RIA); format: cell-based; conditions: IL-1β 1 ng/ml, 48 hours
Protocol: as §1, §2

[4] = tested on: extravasation in the ears of mice; test: Extravasation (Evans Blu) induced by phlogogenic agents in the ears of mice; format: in vivo
Protocol: b) Some of the compounds of the invention, such as compounds I-4, I-11 and I-31, were evaluated in vivo in a series of experimental extravasation models in which 5 μl of the preselected phlogogenic agent dissolved in physiological solution was injected intradermally into the ears of mice as described by Erdo et al., with slight modifications [Agents and Actions 39, 137-142 (1993)].
The products under test were administered orally 1 hour before the challenge and, 30 minutes before the challenge, the dye Evans Blu was injected intravenously in a dose of 100 mg/kg. The animals were killed at a time predetermined according to the test, 30 min.—2 hours after the challenge. The extravasation was evaluated by determining the quantity of dye present in the ear, extracted after homogenisation of the tissue in 2 ml of formamide and incubation at 50° C. for 2 hours. After centrifuging, the amount of dye was determined by measuring the absorption at 620 nm. The maximum % effect (% MPE) was calculated by the following formula:
[formula] in which EV is the mean absorption observed in the group of animals treated solely with the phlogogenic agent, ED is the group treated with the phlogogenic agent and the drug, and EB is the base value, that is, the value for the animals injected with physiological solution alone.
The phlogogenic agents used were:
Arachidonic acid (dissolved in EtOH); (1 mg/mouse; killed+30 min); histamine (3 nmoli/mouse; killed+30 min); PAF (30 pmoli/mouse; killed+60 min); Zymosan (10 μg/mouse; killed+120 min); bradykinin (0.6 nmoli/mouse; killed+30 min).

[5] = OS, mouse ear, PAF, read-out: ED50, extravasation induced by PAF
[6] = 250 mg/kg, non-statistically significant

Row | Compound | IC50 [2] | IC50 [3] | IC50 (formation of PGE2) | also measured
1 | Nc1ccc(O)c(C(=O)O)c1 [Compound 5-ASA, 5-aminosalicylic acid, reference compound] |  |  |  | activity on all of the parameters (in words) ([1]; 100 mg/kg): inactive; Weight of the colon ([1]; 100 mg/kg orally twice a day): 2.4 ± 0.4 g; Myeloperoxidase activity ([1]; 100 mg/kg orally twice a day): 7.9 ± 2.3 UMPO/g/min; iNOS activity ([1]; 100 mg/kg orally twice a day): 167.3 ± 106.5 pmol/g/min; Macroscopic damage (MDS) ([1]; 100 mg/kg orally twice a day): 6.9 ± 1.1
2 | CNC(=S)Nc1ccc(NC(C)=N)cc1 [Compound I-1] | 30 µM |  |  | 
3 | CCCCNC(=S)Nc1ccc(NC(C)=N)cc1 [Compound I-3] | 13.3 µM | 190 µM | 250 µM | 
4 | CCCCCCNC(=S)Nc1ccc(NC(C)=N)cc1 [Compound I-5] | 3.3 µM | 10 µM | 10 µM | 
5 | CC(=N)Nc1ccc(NC(=S)NCCC(C)C)cc1 [Compound I-7] | 13.3 µM | 3.3 µM | 6.6 µM | 
6 | CC(=N)Nc1ccc(NC(=S)NC2CCCCC2)cc1 [Compound I-11] | 30 µM | 110 µM | 16.6 µM | activity in TNBS colitis (in words) ([1]; 20 mg/kg): active; Weight of the colon ([1]; 20 mg/kg orally twice a day): 2.2 ± 0.3 g; Myeloperoxidase activity ([1]; 20 mg/kg orally twice a day): 6.5 ± 1.8 UMPO/g/min; iNOS activity ([1]; 20 mg/kg orally twice a day): 90.6 ± 45.6 pmol/g/min; Macroscopic damage (MDS) ([1]; 20 mg/kg orally twice a day): 4.3 ± 0.9(*)
7 | CCC(=N)Nc1ccc(NC(=S)NC2CCCCC2)cc1 [Compound I-12] | 100 µM |  | 13.3 µM | 
8 | CC(=N)Nc1ccc(NC(=S)Nc2ccccc2)cc1 [Compound I-13] | 6.6 µM | 100 µM | 10 µM | 
9 | CC(=N)Nc1ccc(NC(=S)NCCc2ccccc2)cc1 [Compound I-14] | 6.6 µM | 100 µM | 33 µM | 
10 | CC(=N)Nc1ccc(NC(=S)NCCCc2ccccc2)cc1 [Compound I-15] | 6.6 µM | 33 µM | 16.6 µM | 
11 | CC(=N)Nc1ccc(NC(=S)NCCc2ccc(F)cc2)cc1 [Compound I-16] | 6.6 µM | 13.3 µM | 26.6 µM | 
12 | CC(=N)Nc1ccc(NC(=S)NCCc2ccc(Cl)cc2)cc1 [Compound I-17] | 10 µM | 10 µM | 10 µM | 
13 | CC(=N)Nc1ccc(NC(=S)NCCc2c(F)cccc2F)cc1 [Compound I-18] | 6.6 µM |  | 6.6 µM | 
14 | CC(=N)Nc1ccc(NC(=S)NCc2ccccn2)cc1 [Compound I-19] | 13.3 µM |  |  | 
15 | CC(=N)Nc1ccc(NC(=S)NCCc2ccccn2)cc1 [Compound I-20] | 6.6 µM | 16.6 µM | 16.6 µM | 
16 | CC(=N)Nc1ccc(NC(=S)Nc2ncc(C)s2)cc1 [Compound I-21] |  | 66.6 µM |  | 
17 | CCCCCC(=O)Nc1ccc(NC(C)=N)cc1 [Compound I-23] |  | 100 µM |  | 
18 | CC(=N)Nc1ccc(NC(=O)C2CCCCC2)cc1 [Compound I-24] |  | 33.3 µM | 33.3 µM | 
19 | CC(=N)Nc1ccc(NC(=O)C23CC4CC(CC(C4)C2)C3)cc1 [Compound I-25] |  |  | 16.6 µM | 
20 | CC(=N)Nc1ccc(NC(=O)Cc2c[nH]c3ccccc23)cc1 [Compound I-27] |  | 10 µM |  | 
21 | CC(=N)Nc1ccc(NC(=O)c2cc3ccccc3n2C)cc1 [Compound I-28] |  |  | 100 µM | 
22 | CC(=N)Nc1ccc(NC(=O)NC2CCCCC2)cc1 [Compound I-29] | 25 µM | 25 µM | 6.6 µM | 
23 | N=C(N)Nc1ccc(NC(=S)NC2CCCCC2)cc1 [Compound I-30, 1-guanidinophenyl-4-cyclohexyl Thiourea] | 13.3 µM | 6.6 µM | 10 µM | 
24 | N=C(Nc1ccc(NC(=S)NC2CCCCC2)cc1)N[N+](=O)[O-] [Compound I-31] | 6.6 µM | 46.6 µM | 30 µM | ED50, extravasation induced by PAF ([4]; OS, mouse ear, PAF): 10.8 mg/kg; ED50, extravasation induced by Zymosan ([4]; OS, mouse ear, Zymosan): 10.5 mg/kg; ED50, extravasation induced by AA (arachidonic acid) ([4]; OS, mouse ear, arachidonic acid): 30.5 mg/kg
25 | CC(=N)Nc1cccc(NC(=S)NC2CCCCC2)c1 [Compound I-32] |  |  | 300 µM | 
26 | CS(=O)(=O)Nc1ccc([N+](=O)[O-])cc1Oc1ccccc1 [Nimesulide, reference compound] |  |  |  | ED50 [4, 5]: > 40 mg/kg; ED50 ([4]; OS, mouse ear, arachidonic acid, read-out: ED50, extravasation induced by AA (arachidonic acid)): 41 mg/kg; times less active than Compound I-4 ([4]; antagonising AA): 2 times
27 | CN1C(C(=O)Nc2ccccn2)=C(O)c2ccccc2S1(=O)=O [Piroxicam, reference compound] |  |  |  | ED50 [4, 5]: 21.2 mg/kg; ED50 ([4]; OS, mouse ear, Zymosan, read-out: ED50, extravasation induced by Zymosan): 6.1 mg/kg
28 | O=C(O)c1cc(/N=N/c2ccc(S(=O)(=O)Nc3ccccn3)cc2)ccc1O [Sulphasalazine, sulphasalazine, reference compound] |  |  |  | Weight of the colon ([1]; 250 mg/kg orally twice a day): 2.5 ± 0.3 g; Myeloperoxidase activity ([1]; 250 mg/kg orally twice a day): 7.5 ± 5.5 UMPO/g/min; iNOS activity ([1]; 250 mg/kg orally twice a day): 100.8 ± 86.8 pmol/g/min; Macroscopic damage (MDS) ([1]; 250 mg/kg orally twice a day): 6.0 ± 2.9; effect on iNOS activity [1, 6]: about 50%; effect on macroscopic damage [1, 6]: about 20%
